Series [1] deals with CHO-K1 cells. In words: Cell viability, MTS colorimetric assay. As to conditions: 24 hours; for Cytotoxicity: 30 μM; for Change in survival rate: 100 μM. In kind it is cell-based, Chinese hamster. The protocol:
Chinese hamster ovary (CHO)-K1 cells were cultured in DMEM medium containing 10% fetal bovine serum (FBS), 100 units/ml of penicillin and 100 μg/ml streptomycin.
The cell viability was measured using the CellTiter 96® AQueous One Solution cell proliferation assay kit (Promega, Madison, WI, USA). CHO-K1 cells were cultured with medium supplemented with 10% FBS in 96-well plates for 24 hours, and then compounds or vehicle were treated in the medium, and after 24 hours, the medium was completely removed, and the MTS assay was performed as recommended in the supplier's protocol. The absorbance of Formazan was measured at a wavelength of 490 nm using an Infinite M200 microplate reader (Tecan, Austria).

The target in series [2] is T1, human WT ANO1 (Homo sapiens, UniProt Q5XXA6).
T1 construct: expressed in transfected cells
T1 sequence (Q5XXA6 1-986): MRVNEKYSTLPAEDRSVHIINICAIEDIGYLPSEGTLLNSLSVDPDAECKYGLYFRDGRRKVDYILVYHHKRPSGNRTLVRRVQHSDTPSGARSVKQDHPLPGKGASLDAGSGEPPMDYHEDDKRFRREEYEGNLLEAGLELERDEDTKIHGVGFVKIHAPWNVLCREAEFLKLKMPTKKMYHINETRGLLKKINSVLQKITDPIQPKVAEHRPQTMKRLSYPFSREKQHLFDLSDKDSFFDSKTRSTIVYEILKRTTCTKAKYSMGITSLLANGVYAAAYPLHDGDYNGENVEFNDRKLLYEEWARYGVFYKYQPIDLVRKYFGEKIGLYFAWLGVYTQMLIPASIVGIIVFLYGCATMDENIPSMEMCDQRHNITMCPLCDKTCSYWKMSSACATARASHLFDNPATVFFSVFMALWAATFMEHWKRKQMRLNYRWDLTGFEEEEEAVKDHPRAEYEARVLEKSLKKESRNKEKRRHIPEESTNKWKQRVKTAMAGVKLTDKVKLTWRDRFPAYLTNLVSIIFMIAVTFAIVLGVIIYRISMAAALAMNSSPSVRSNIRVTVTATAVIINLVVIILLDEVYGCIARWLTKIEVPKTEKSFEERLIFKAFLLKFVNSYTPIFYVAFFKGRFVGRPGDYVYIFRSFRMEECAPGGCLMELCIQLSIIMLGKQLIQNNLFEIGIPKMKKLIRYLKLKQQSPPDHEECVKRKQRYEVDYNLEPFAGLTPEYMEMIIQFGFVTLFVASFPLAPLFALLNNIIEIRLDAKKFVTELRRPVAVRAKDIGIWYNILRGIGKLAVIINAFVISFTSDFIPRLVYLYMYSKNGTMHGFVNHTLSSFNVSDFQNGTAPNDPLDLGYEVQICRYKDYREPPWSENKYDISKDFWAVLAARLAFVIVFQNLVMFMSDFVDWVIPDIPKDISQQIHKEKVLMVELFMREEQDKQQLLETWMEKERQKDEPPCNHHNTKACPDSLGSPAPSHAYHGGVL
In words: ANO1 I− transport activity, YFP fluorescence in FRT cells, ATP-activated. Type of series: cell-based. Here is the method:
Chinese hamster ovary (CHO)-K1 cells or LN-215 cells were cultured in DMEM medium containing 10% fetal bovine serum (FBS), 100 units/ml of penicillin and 100 μg/ml streptomycin. CHO-K1 cells or LN-215 cells were stably transfected with pcDNA3.1 encoding the halide sensor YFP-H148Q/I152L/F46L and human wild-type (WT)-SLC26A9. Fisher rat thyroid (FRT) cells stably transfected with YFP-H148Q/I152L/F46L and human wild type (WT)-CFTR or human wild type (WT)-ANO1 were cultured in DMEM/F-12 medium containing 10% fetal bovine serum (FBS), 100 units/ml of penicillin, and 100 μg/ml of streptomycin.
LN-215 cells expressing human WT SLC26A9 and YFP-F46L/H148Q/I152L, and FRT cells expressing human WT CFTR or ANO1 and YFP-F46L/H148Q/I152L were plated in 96-well microplates at a density of 2×10^4 cells per well, and cultured for 48 hours. […] After culturing at 37° C. for 10 minutes, the 96-well plate was located on the FLUOstar Omega Microplate Reader (BMG Labtech, Ortenberg, Germany) for a fluorescence assay. For assay of the activity of […], fluorescence was recorded continuously (400 ms per point) for 1 second (baseline), whereby each well was assayed individually for SLC26A9-mediated I-influx. Then, 50 μL of NaI-substituted HEPES buffered solution (replacing NaCl with NaI) was added using a liquid injector at 1 second, and YFP fluorescence was recorded for 6 seconds. […]

As for `Cc1ccc2[nH]c(C(=O)O)c(CC(=O)N3CCN(c4c(C)cccc4Cl)CC3)c2c1` [YPI-A4948, 3-(2-(4-(2-Chloro-6-methylphenyl)piperazin-1-yl)-2-oxoethyl)-5-methyl-1H-indole-2-carboxylic acid], in series [1], the Cytotoxicity entry is “no cytotoxicity” and the “Change in survival rate” value is “around 10%”. Moreover, the “Effect on ANO1 activity” value in series [2] (30 μM) is listed as “weakly inhibited”.
The term inhibition denotes the percentage by which the read-out fell short of the control. Low values mean a weak effect, high ones a strong effect. Consider `Cc1ccc(C)c(N2CCN(C(=O)Cc3c(C(=O)O)[nH]c4ccc(Cl)cc34)CC2)c1` [YPI-H05, 5-chloro-3-(2-(4-(2,5-dimethylphenyl)piperazin-1-yl-)-2-oxoethyl)-1H-indole-2-carboxylic acid], for which, in series [1], the Cytotoxicity entry is “no cytotoxicity” and the “Change in survival rate” value is “around 10%”. The molecule further returned an inhibition at 30 µM in series [2] (FIG. 3) of about 80%.

Values taken from patent publication US20240287042A1, “NOVEL COMPOUND HAVING INHIBITORY ACTIVITY AGAINST PENDRIN, AND PHARMACEUTICAL USES THEREOF” (UIF (University Industry Foundation), Yonsei University, priority 2021, published 2024).
